Laboratory results as given in patent US6458978B1, “Fluorous phosphines and process for their preparation” (Atofina Vlissingen B.V., priority 1998, dated 2002).
Marks after values point to notes of the source that are not given here. Blank lines part the entries; values can stand above or below the compound they belong to.

Legend:
[1] = hydrogenation of 1-heptene in benzene; cited from earlier work
[2] = Hydrogenation of 1-octene under single phase conditions in α,α,α-trifluorotoluene; conditions: [Rh] 4.0 mM, [1-octene] 1.46 M; T = 80° C., p(H2) = 1 bar, α,α,α-trifluorotoluene
Experimental: To be able to directly compare the activities of fluorous derivatives H{1,6} and H{1,8} with non-fluorous [P(C6H4-4-SiMe3)3]3RhCl (H{0}) and the conventional Wilkinson catalyst (PPh3)3RhCl, homogeneous hydrogenation of 1-octene were carried out under single phase conditions in the hybrid solvent α,α,α-trifluorotoluene at atmospheric H2 pressures. Highest rates of hydrogen uptake (14.2 mol.L^−1.h^−1) were measured for 1c at relatively high rhodium and olefine concentrations (entry 2, Table 7). Under these conditions a zero-order dependence in [1-octene] was found up to ca 80% conversion resulting in a linear conversion versus time plot. In all other experiments ([Rh]=4.0-8.0 mM, [1-octene]0=1.46 M) rates of hydrogen uptake were lower (<11 mol.L^−1.h^−1) and conversion versus time plots corresponded to a rate law -d[1-octene]/dt=kobs.[1-octene] for >98% conversion allowing to evaluate catalyst activity in terms of the observed first order rate constant kobs. Since for these experiments the rates of dihydrogen uptake were well below the maximum value obtained in entry 2, diffusion limitation of H2 can be excluded. In addition to kobs, turn over frequencies (TOF in mol.mol^−1.h^−1) were derived from the tangent of a 4^thorder polynomal fit to conversion versus time plots at 25% conversion and serve as a measure of catalyst activity independent of any assumed kinetic relationship with substrate.
Catalytic reactions were carried out under single phase conditions in CF3C6H5 at 80° C. under 1 bar of hydrogen pressure. After >90% conversion (monitored by the H2 uptake) volatiles were distilled off and analyzed by GC. Activities (TOF) were determined for 25% conversion.

[3] = Solubility of dppe and dppe derivatives G{m,x} in perfluorinated and non-fluorinated solvents; format: physicochemical
[4] = Leaching of rhodium and phosphorus into the organic product phase and partitioning of rhodium species (ICP-AAS); conditions: fluorous biphasic product mixture from hydrogenation of 1-octene
Description: Rhodium leaching into the organic phase (as determined by ICP-AAS) was low. On average 0.12% of Rh per cycle was lost corresponding to a rhodium concentration of 3 ppm (by weight) in the product phase. Over 9 cycles only 1% of rhodium was lost despite of the phase separation method used. Leaching was higher for less fluorous pre-catalyst H{1,6}: 0.3% (6 ppm) of rhodium was present in the organic phase after phase separation.
The amount of leached rhodium allows to calculate the average partition coefficients (P) of the rhodium species present during phase separation (Table 6). […] Chem. Soc. 1999, 121, 2696-2704.). […] Chem. Int. Ed. Engl. 1997, 36, 1610-1612).
The retention of free uncoordinated fluorous phosphine can be used for recycling the intact catalyst system.
(§1) Only catalysts prepared through method 1 were used. Catalytic reactions were carried out under single phase fluorous conditions in c-CF3C6F11 (2 mL) at 80° C. After >90% conversion (monitored by the H2 uptake) the homogeneous reaction mixture was cooled to 0° C. and the upper organic layer was siphoned of. In between cycles the fluorous layer was kept under H2 atmosphere. By warming up to 80° C. and addition of a fresh portion of 1-octene (12.74 mmol) a new cycle was started. The organic phases resulting from the first cycle were analyzed by GC and ICP-AAS.

[5] = Rhodium catalyzed hydrogenation of 1-octene under single phase fluorous conditions with catalyst recycling; conditions: for TOF50% / TON (cumulative) / conv.: p(H2) = 1 bar
Experimental: (Table 5). In this respect compounds H{1,6} and H{1,8} are true fluorous equivalents of the classical Wilkinson's hydrogenation catalyst (PPh3)3RhCl. The hydrogenation products were readily isolated from the catalyst layer by cooling of the reaction mixture to 0° C. followed by phase separation of the resulting biphasic system. In this way hydrogenation of 1-octene afforded n-octane in >95% yield (GC, GC-MS). Less than 4.3% internal olefins resulting from isomerization were present. In case of H{1,8} it was possible to recycle the fluorous catalyst layer multiple times allowing high turnover numbers and high conversions per cycle (Table 5 and FIG. 5).
20. Rhodium Catalyzed Hydrogenation Reactions
The catalytic experiments were carried out in a 30 mL Schienk flask, under dihydrogen atmosphere (1 bar). The catalyst was either dissolved in a hydrogen saturated toluene or perfluoro solvent and the mixture was stirred with a magnetic stirring bar (900 rpm). The olefinic substrate was added after initial dihydrogen uptake had ceased. The dihydrogen uptake was monitored using two mineral oil filled gas burettes. During the hydrogenation reactions one burette was opened to the reaction vessel while the other was recharged with dihydrogen.
as §1

[6] = c-C6F11CF3/toluene at 27° C.; cited from earlier work
[7] = cycle 1, c-CF3C6F11, 80° C., [1-octene]/[Rh] = 559, [Rh]0 = 0.0060M
[8] = cycle 1, c-CF3C6F11, 80° C., [1-octene]/[Rh] = 365
[9] = cycle 2, c-CF3C6F11, 80° C., [1-octene]/[Rh] = 365
[10] = cycle 3, c-CF3C6F11, 80° C., [1-octene]/[Rh] = 365
[11] = cycle 4, c-CF3C6F11, 80° C., [1-octene]/[Rh] = 365
[12] = cycle 5, c-CF3C6F11, 80° C., [1-octene]/[Rh] = 365
[13] = cycle 6, c-CF3C6F11, 80° C., [1-octene]/[Rh] = 365
[14] = cycle 7, c-CF3C6F11, 80° C., [1-octene]/[Rh] = 365
[15] = cycle 8, c-CF3C6F11, 80° C., [1-octene]/[Rh] = 365
[16] = cycle 9, fresh c-CF3C6F11 added as compensation for losses of fluorous solvent, 80° C.

SMILES: [Cl-].[Rh].c1ccc(P(c2ccccc2)c2ccccc2)cc1.c1ccc(P(c2ccccc2)c2ccccc2)cc1.c1ccc(P(c2ccccc2)c2ccccc2)cc1 [(PPh3)3RhCl]
TOF [1]: 150 to 600 h⁻¹
TOF(25%), turn over frequency at 25% conversion [2]: 960 h⁻¹
TON (mole of olefin/mole of Rh) [2]: 358
conversion [2]: 98%
kobs (first order rate constant) [2]: 4.0(1) h^−1

SMILES: FC(F)(F)C(F)(F)C(F)(F)C(F)(F)C(F)(F)C(F)(F)CCP(CCC(F)(F)C(F)(F)C(F)(F)C(F)(F)C(F)(F)C(F)(F)F)CCC(F)(F)C(F)(F)C(F)(F)C(F)(F)C(F)(F)C(F)(F)F [P [(CH2)2(CF2)nCF3)3]3 (n=5)]
Partition coefficient P [6]: 82

SMILES: FC(F)(F)C(F)(F)C(F)(F)C(F)(F)C(F)(F)C(F)(F)CCP(CCC(F)(F)C(F)(F)C(F)(F)C(F)(F)C(F)(F)C(F)(F)F)CCC(F)(F)C(F)(F)C(F)(F)C(F)(F)C(F)(F)C(F)(F)F [P [(CH2)2(CF2)nCF3)3]3 (n=7)]
Partition coefficient P [6]: 332

Continued, in another order:

solubility at room temperature, THF [3]: − (−: <0.01 g/ml)
solubility at room temperature, toluene [3]: − (−: <0.01 g/ml)
solubility at room temperature, FC-72 ([3]; FC-72: mixture of perfluorinated hexanes): + (+: >0.1 g/ml)
SMILES: FC(F)(F)C(F)(F)C(F)(F)C(F)(F)C(F)(F)C(F)(F)CC[Si](CCC(F)(F)C(F)(F)C(F)(F)C(F)(F)C(F)(F)C(F)(F)F)(CCC(F)(F)C(F)(F)C(F)(F)C(F)(F)C(F)(F)C(F)(F)F)c1ccc(P(CCP(c2ccc([Si](CCC(F)(F)C(F)(F)C(F)(F)C(F)(F)C(F)(F)C(F)(F)F)(CCC(F)(F)C(F)(F)C(F)(F)C(F)(F)C(F)(F)C(F)(F)F)CCC(F)(F)C(F)(F)C(F)(F)C(F)(F)C(F)(F)C(F)(F)F)cc2)c2ccc([Si](CCC(F)(F)C(F)(F)C(F)(F)C(F)(F)C(F)(F)C(F)(F)F)(CCC(F)(F)C(F)(F)C(F)(F)C(F)(F)C(F)(F)C(F)(F)F)CCC(F)(F)C(F)(F)C(F)(F)C(F)(F)C(F)(F)C(F)(F)F)cc2)c2ccc([Si](CCC(F)(F)C(F)(F)C(F)(F)C(F)(F)C(F)(F)C(F)(F)F)(CCC(F)(F)C(F)(F)C(F)(F)C(F)(F)C(F)(F)C(F)(F)F)CCC(F)(F)C(F)(F)C(F)(F)C(F)(F)C(F)(F)C(F)(F)F)cc2)cc1 [G{3,6}]

Average partitioning coefficient P of rhodium species ([4]; T = 0° C.): 293^b
Average partitioning coefficient P of rhodium species ([4]; T = 25° C.): 76^b
SMILES: C[Si](C)(CCC(F)(F)C(F)(F)C(F)(F)C(F)(F)C(F)(F)C(F)(F)F)c1ccc([PH](c2ccc([Si](C)(C)CCC(F)(F)C(F)(F)C(F)(F)C(F)(F)C(F)(F)C(F)(F)F)cc2)(c2ccc([Si](C)(C)CCC(F)(F)C(F)(F)C(F)(F)C(F)(F)C(F)(F)C(F)(F)F)cc2)[Rh]([Cl])([PH](c2ccc([Si](C)(C)CCC(F)(F)C(F)(F)C(F)(F)C(F)(F)C(F)(F)C(F)(F)F)cc2)(c2ccc([Si](C)(C)CCC(F)(F)C(F)(F)C(F)(F)C(F)(F)C(F)(F)C(F)(F)F)cc2)c2ccc([Si](C)(C)CCC(F)(F)C(F)(F)C(F)(F)C(F)(F)C(F)(F)C(F)(F)F)cc2)[PH](c2ccc([Si](C)(C)CCC(F)(F)C(F)(F)C(F)(F)C(F)(F)C(F)(F)C(F)(F)F)cc2)(c2ccc([Si](C)(C)CCC(F)(F)C(F)(F)C(F)(F)C(F)(F)C(F)(F)C(F)(F)F)cc2)c2ccc([Si](C)(C)CCC(F)(F)C(F)(F)C(F)(F)C(F)(F)C(F)(F)C(F)(F)F)cc2)cc1 [H{1,6}, (D{1,6})3RhCl]
TOF(25%), turn over frequency at 25% conversion [2]: 1110 h⁻¹
TON (mole of olefin/mole of Rh) [2]: 363
conversion [2]: 99%
kobs (first order rate constant) [2]: 4.2(1) h^−1
TOF50% [5, 7]: 298 h⁻¹
TON (cumulative) [5, 7]: 531
conv. ([5]; cycle 1, c-CF3C6F11, 80° C., containing 10 mol % of D{1,6}, [1-octene]/[Rh] = 559, [Rh]0 = 0.0060M): 95%

Average partitioning coefficient P of rhodium species ([4]; T = 0° C.): 1052^c
SMILES: C[Si](C)(CCC(F)(F)C(F)(F)C(F)(F)C(F)(F)C(F)(F)C(F)(F)C(F)(F)C(F)(F)F)c1ccc(P(c2ccc([Si](C)(C)CCC(F)(F)C(F)(F)C(F)(F)C(F)(F)C(F)(F)C(F)(F)C(F)(F)C(F)(F)F)cc2)c2ccc([Si](C)(C)CCC(F)(F)C(F)(F)C(F)(F)C(F)(F)C(F)(F)C(F)(F)C(F)(F)C(F)(F)F)cc2)cc1.C[Si](C)(CCC(F)(F)C(F)(F)C(F)(F)C(F)(F)C(F)(F)C(F)(F)C(F)(F)C(F)(F)F)c1ccc(P(c2ccc([Si](C)(C)CCC(F)(F)C(F)(F)C(F)(F)C(F)(F)C(F)(F)C(F)(F)C(F)(F)C(F)(F)F)cc2)c2ccc([Si](C)(C)CCC(F)(F)C(F)(F)C(F)(F)C(F)(F)C(F)(F)C(F)(F)C(F)(F)C(F)(F)F)cc2)cc1.C[Si](C)(CCC(F)(F)C(F)(F)C(F)(F)C(F)(F)C(F)(F)C(F)(F)C(F)(F)C(F)(F)F)c1ccc(P(c2ccc([Si](C)(C)CCC(F)(F)C(F)(F)C(F)(F)C(F)(F)C(F)(F)C(F)(F)C(F)(F)C(F)(F)F)cc2)c2ccc([Si](C)(C)CCC(F)(F)C(F)(F)C(F)(F)C(F)(F)C(F)(F)C(F)(F)C(F)(F)C(F)(F)F)cc2)cc1.[Cl][Rh] [H{1,8}, (D{1,8})3RhCl]
TOF(25%), turn over frequency at 25% conversion [2]: 870 h⁻¹
TON (mole of olefin/mole of Rh) [2]: 355
conversion [2]: 99%
kobs (first order rate constant) [2]: 3.2(1) h^−1
Drop of catalyst activity ([5]; 9th cycle, amount of c-C6F11CF3 restored to its initial volume): 19%
TOF50% [5, 8]: 177 h⁻¹
TON (cumulative) [5, 8]: 337
conv. ([5]; cycle 1, c-CF3C6F11, 80° C., [1-octene]/[Rh] = 365, [Rh] = 0.0087M in the initial cycle): 92%
TOF50% [5, 9]: 212 h⁻¹
TON (cumulative) [5, 9]: 688
conv. [5, 9]: 96%
TOF50% [5, 10]: 261 h⁻¹
TON (cumulative) [5, 10]: 1048
conv. [5, 10]: 99%
TOF50% [5, 11]: 277 h⁻¹
TON (cumulative) [5, 11]: 1383
conv. [5, 11]: 92%
TOF50% [5, 12]: 304 h⁻¹
TON (cumulative) [5, 12]: 1747
conv. [5, 12]: 99.8%
TOF50% [5, 13]: 397 h⁻¹
TON (cumulative) [5, 13]: 2100
conv. [5, 13]: 96.8%
TOF50% [5, 14]: 507 h⁻¹
TON (cumulative) [5, 14]: 2444
conv. [5, 14]: 94%
TOF50% [5, 15]: 617 h⁻¹
TON (cumulative) [5, 15]: 2808
conv. [5, 15]: 99.7%
TOF50% [5, 16]: 142 h⁻¹
TON (cumulative) [5, 16]: 3117
conv. [5, 16]: 85%
